Laboratory results: patent EP1938810A1, “AMELIORATING AGENT FOR METABOLIC SYNDROME” (FUJI CHEMICAL INDUSTRY CO., LTD., priority 2005, dated 2007)

Key:
[1] = Change in body weight of rats under oral astaxanthin; assay type: in vivo, rat; details: for body weight: SHR/Ndmer rats
Experimental: (§1) Female 5 weeks old, metabolic syndrome model rats (SHR/Ndmer) (a product of Sankyo laboratories Co., Ltd.) were purchased and reared for about a week in a laboratory animals rearing room of a constant temperature (24 ± 1 °C), a constant humidity (54 ± 5 %) and a 12 hour light-dark cycle, and thereafter used for the experiment. Water and feed were provided ad lib to them. In the experiment, each group consists of 6 rats with proviso that 5 Wistar rats as normal group were used. Sample was orally administered to all rats in the afternoon.
(§2) • 1) Control group: olive oil was administered in an amount of 1 ml per 1 kg of body weight of rat. • 2) Astaxanthin 5 mg/Kg administration group: astaxanthin was administered in an amount of 5 mg in admixture with I ml of olive oil per 1 kg of body weight of rat. • 3) Astaxanthin 50 mg/Kg administration group: astaxanthin was administered in an amount of 50 mg in admixture with I ml of olive oil per 1 kg of body weight of rat. • 4) Normal group: olive oil was administered in an amount of 1 ml per 1 kg of body weight of Wister rat

[2] = test system: metabolic syndrome model rats (SHR/Ndmer); assay: Measurement of blood pressure (tail artery, plethysmography); assay type: in vivo, rat; details: for diastolic blood pressure / systolic blood pressure: SHR/Ndmer rats
Experimental: Rats were broken in the apparatus since a week ago from the beginning of the experiment. They were bound slightly under a non-anesthetic and cuff with a built-in infrared sensor (THC-1, a product of Softron Co., Ltd. was applied to the tail artery to measure pressure (maximum, minimum and an average blood pressures) by a plethysmography. The measurement of blood pressure was conducted in the afternoon.
as §1, §2

[3] = test system: metabolic syndrome model rats (SHR/Ndmer); assay: Fasting blood glucose value; assay type: in vivo, rat; details: overnight fasting
Experimental: Water only was given to rats ad lib from the day before the measurement not so as to give any feed to them. In the afternoon, 0.5 U of insulin was injected to them in an amount of 1 ml per 1 kg of the body weight, and the exsanguinations were conducted at given times to measure the glucose concentration in blood using a Antisence Π (a product of Horive Ltd).
as §1, §2

[4] = test system: metabolic syndrome model rats (SHR/Ndmer); assay: Blood glucose value after insulin injection (insulin resistance test); assay type: in vivo, rat; details: for blood glucose value after insulin infection: SHR/Ndmer rats, fasted, 120 minutes after 0.5U insulin
Experimental: Water only was given to rats ad lib from the day before the measurement not so as to give any feed to them. In the afternoon, 0.5 U of insulin was injected to them in an amount of 1 ml per 1 kg of the body weight, and the exsanguinations were conducted at given times to measure the glucose concentration in blood using a […] Π (a product of Horive Ltd). Female 5 weeks old, metabolic syndrome model rats ([…] product of Sankyo laboratories Co., Ltd.) were purchased and reared for about a week in a laboratory animals rearing room of a constant temperature (24 ± 1 °C), a constant humidity (54 ± 5 %) and a 12 hour light-dark cycle, and thereafter used for the experiment. Water and feed were provided ad lib to them. In the experiment, each group consists of 6 rats with proviso that 5 Wistar rats as normal group were used. Sample was orally administered to all rats in the afternoon. • 1) Control group: olive oil was administered in an amount of 1 ml per 1 kg of body weight of rat. • 2) Astaxanthin 5 mg/Kg administration group: astaxanthin was administered in an amount of 5 mg in admixture with I ml of olive oil per 1 kg of body weight of rat. • 3) Astaxanthin 50 mg/Kg administration group: astaxanthin was administered in an amount of 50 mg in admixture with I ml of olive oil per 1 kg of body weight of rat. • 4) Normal group: olive oil was administered in an amount of 1 ml per 1 kg of body weight of Wister rat

[5] = test system: metabolic syndrome model rats (SHR/Ndmer); assay: Measurement of fat in blood (triglyceride G test); assay type: in vivo, rat; details: for blood fat: Ax 50 mg/kg oral, SHR/Ndmer rats
Experimental: The supernatant formed after centrifugation was subjected to the triglyceride G test using an enzyme (a product of Wako Pure Chemical Industries, Ltd.) to measure the fat concentration in blood.
as §1, §2

[6] = test system: metabolic syndrome model rats (SHR/Ndmer); assay: Measurement of adiponectin in blood (ELISA); assay type: in vivo, rat; details: for blood adiponectin concentration: Ax 50 mg/kg oral, SHR/Ndmer rats
Experimental: I ml of blood was exsanguinated from a rat. After centrifugation, the obtained supernatant was subjected to ELISA kit for measuring adiponectin (Otsuka Pharmaceutical Inc.) to measure the adiponectin concentration in blood
as §1, §2

[7] = background statement; cited from earlier work
[8] = Ax 5 mg/kg oral, at 6 weeks old
[9] = Ax 5 mg/kg oral, at 9 weeks old
[10] = Ax 5 mg/kg oral, at 17 weeks old
[11] = Ax 50 mg/kg oral, at 6 weeks old
[12] = Ax 50 mg/kg oral, at 9 weeks old
[13] = Ax 50 mg/kg oral, at 17 weeks old
[14] = Ax 5 mg/kg oral, at 12 weeks old
[15] = Ax 5 mg/kg oral, at 24 weeks old
[16] = Ax 50 mg/kg oral, at 12 weeks old
[17] = Ax 50 mg/kg oral, at 24 weeks old
[18] = Ax 5 mg/kg oral, at 7 weeks old
[19] = Ax 50 mg/kg oral, at 7 weeks old

With `CC1=C(/C=C/C(C)=C/C=C/C(C)=C/C=C/C=C(C)/C=C/C=C(C)/C=C/C2=C(C)C(=O)C(O)CC2(C)C)C(C)(C)CC(O)C1=O` (stereo not drawn) [Ax, 3,3'-dihydroxy-β, β-carotene-4, 4'-dione] as the compound, how does the body weight [1, 8] read?
The body weight was 156 g.

And the body weight [1, 9]?
Its body weight is 259 g.

What about the body weight ([1]; Ax 5 mg/kg oral, at 13 weeks old) of the same compound?
The body weight was 378 g.

And the body weight [1, 10]?
The body weight was 468 g.

And the body weight [1, 11]?
The body weight was 148 g.

And the body weight [1, 12]?
Its body weight is 250 g.

What about the body weight ([1]; Ax 50 mg/kg oral, at 13 weeks old) of the same compound?
Its body weight is 368 g.

And the body weight [1, 13]?
Its body weight is 459 g.

And the “change in the body weight (in words)” value ([1]; administration of astaxanthin, summary of Table 1)?
The value was “no change in the body weight”.

What about the diastolic blood pressure [2, 8] of the same compound?
The diastolic blood pressure was 121 mmHG.

What about the systolic blood pressure [2, 8] of the same compound?
The systolic blood pressure was 144 mmHG.

What about the diastolic blood pressure [2, 9] of the same compound?
The diastolic blood pressure was 130 mmHG.

And the systolic blood pressure [2, 9]?
Its systolic blood pressure is 161 mmHG.

And the diastolic blood pressure [2, 14]?
Its diastolic blood pressure is 129 mmHG.

And the systolic blood pressure [2, 14]?
Its systolic blood pressure is 159 mmHG.

What about the diastolic blood pressure [2, 15] of the same compound?
Its diastolic blood pressure is 155 mmHG.

What about the systolic blood pressure [2, 15] of the same compound?
Its systolic blood pressure is 185 mmHG.

What about the diastolic blood pressure [2, 11] of the same compound?
Its diastolic blood pressure is 121 mmHG.

And the systolic blood pressure [2, 11]?
The systolic blood pressure was 147 mmHG.

What about the diastolic blood pressure [2, 12] of the same compound?
Its diastolic blood pressure is 128 mmHG.

And the systolic blood pressure [2, 12]?
The systolic blood pressure was 160 mmHG.

And the diastolic blood pressure [2, 16]?
The diastolic blood pressure was 119 mmHG.

And the systolic blood pressure [2, 16]?
The systolic blood pressure was 154 mmHG.

What about the diastolic blood pressure [2, 17] of the same compound?
The diastolic blood pressure was 156 mmHG.

And the systolic blood pressure [2, 17]?
The systolic blood pressure was 189 mmHG.

And the “rise in blood pressure (in words)” value ([2]; administration of astaxanthin, summary of Tables 2 and 3)?
Its value is “suppresses the rise in blood pressure”.

And the “fasting blood glucose value” [3, 18]?
The value was 132.0 mg/dL.

And the “fasting blood glucose value” [3, 9]?
The value was 98.0 mg/dL.

What about the “fasting blood glucose value” [3, 14] of the same compound?
The value was 88.3 mg/dL.

What about the “fasting blood glucose value” [3, 10] of the same compound?
The value was 108.8 mg/dL.

What about the “fasting blood glucose value” [3, 19] of the same compound?
The value was 135.0 mg/dL.

And the “fasting blood glucose value” [3, 12]?
The value was 109.0 mg/dL.

What about the “fasting blood glucose value” [3, 16] of the same compound?
The value was 89.3 mg/dL.

And the “fasting blood glucose value” [3, 13]?
Its value is 111.8 mg/dL.

And the “blood glucose value after insulin infection” value [4, 18]?
Its value is 98.0 mg/dL.

What about the “blood glucose value after insulin infection” value [4, 9] of the same compound?
The value was 85.6 mg/dL.

What about the “blood glucose value after insulin infection” value [4, 14] of the same compound?
The value was 81.5 mg/dL.

What about the “blood glucose value after insulin infection” value [4, 10] of the same compound?
Its value is 82.2 mg/dL.

And the “blood glucose value after insulin infection” value [4, 19]?
Its value is 106.3 mg/dL.

What about the “blood glucose value after insulin infection” value [4, 12] of the same compound?
The value was 81.0 mg/dL.

And the “blood glucose value after insulin infection” value [4, 16]?
Its value is 73.8 mg/dL.

What about the “blood glucose value after insulin infection” value [4, 13] of the same compound?
The value was 72.0 mg/dL.

And the “insulin resistance (in words)” value ([4]; administration of astaxanthin, summary of Table 5)?
The value was “significantly improved”.

And the blood fat ([5]; at 7 weeks old)?
The blood fat was 139.5 ± 15.9 mg/dL.

What about the blood fat ([5]; at 12 weeks old) of the same compound?
The blood fat was 304.8 ± 9.9 mg/dL.

What about the “increase in the blood fat with the passage of time (in words)” value ([5]; SHR/Ndmer, versus control group, summary of Table 6) of the same compound?
Its value is “suppresses the increase in the blood fat”.

What about the blood adiponectin concentration ([6]; at 7 weeks old) of the same compound?
The blood adiponectin concentration was 7.08 ± 0.43 µg/mL.

What about the blood adiponectin concentration ([6]; at 12 weeks old) of the same compound?
Its blood adiponectin concentration is 8.21 ± 0.14 µg/mL.

And the “adiponectin concentration in blood (in words)” value ([6]; administration of astaxanthin, summary of Table 7)?
The value was “increased in comparison with the control group”.

What about the “antioxidative action relative to vitamin E (α-tocopherol)” value [7] of the same compound?
Its value is “about 1000 times”.

What about the “antioxidative action relative to β-carotene” value [7] of the same compound?
The value was “about 40 times”.
